Among the data in patent US5391540A, “Substituted pyridine compounds” (Rohm and Haas Company, priority 1993, dated 1995) are inhibition values, retold here.

Test in all cases: Pre-emergent herbicidal activity (Table A)
What all share (assay type): in vivo

The subject of one experiment is Seedling Johnsongrass. The following applies: Sorghum halepense, pre-emergence, Sejg, 11.2 kg/ha, 10-14 days, read-out: herbicidal rating (% inhibition). As to the method: (§1) Tables A and B summarize results of tests conducted to determine the pre-emergent herbicidal activity of the compounds of this invention. The herbicidal ratings used in Tables A and B were assigned according to a scale based on the percent inhibition of each plant species. The herbicide rating symbols in Tables A and B are defined as follows: […]
(§2) One set of pre-emergent tests was conducted as follows:
(§3) Topsoil was placed in a pan and compacted to a depth of 0.95 to 1.27 cm. from the top of the pan. A predetermined number of seeds of each of several monocotyledonous and dicotyledonous annual plant species and/or vegetative propagules of various perennial plant species were placed on top of the soil. The soil required to level fill a pan after seeding or adding vegetative propagules was weighed into another pan. A known amount of the test compound dissolved or suspended in an organic solvent or water and applied in acetone or water as a carrier was thoroughly mixed with this cover soil, and the herbicide/soil mixture was used as a cover layer for the previously prepared pan. In Table A below the amounts of active ingredient were all equivalent to an application rate of 11.2 kilograms/hectare (kg/ha). After treatment, the pans were moved to a greenhouse bench where they were watered as needed to give adequate moisture for germination and growth.
(§4) Approximately 10-14 days (usually 11 days) after planting and treating, the plants were observed and the results recorded.
(§5) The plant species usually regarded as weeds which were utilized in one set of pre-emergent activity tests, the data for which are shown in Table A, are identified by letter headings printed diagonally above the columns according to the following legend: […]

The subject of a further experiment is Indian Mustard. To be noted: Brassica juncea, pre-emergence, Inmu, 11.2 kg/ha, 10-14 days, read-out: herbicidal rating (% inhibition). As to the method:
as §1, §2, §3, §4, §5

For another experiment, the system named is Annual Bluegrass. The following applies: pre-emergence, Anbg, 11.2 kg/ha, 10-14 days, read-out: herbicidal rating (% inhibition). As to the method:
as §1, §2, §3, §4, §5

A further experiment concerns Wild Buckwheat. The following applies: Fallopia convolvulus, pre-emergence, Wibw, 11.2 kg/ha, 10-14 days, read-out: herbicidal rating (% inhibition). As to the method:
as §1, §2, §3, §4, §5

In the next experiment the test system is Yellow Nutsedge. To be noted: Cyperus, pre-emergence, Yens, 11.2 kg/ha, 10-14 days, read-out: herbicidal rating (% inhibition). The method in brief:
(§6)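 Percent inhibition per species, scored on a rating scale, after pre-emergent soil incorporation: test compound in acetone or water carrier mixed into cover soil, layered over seeded topsoil or vegetative propagules.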

In another experiment the test system is Morningglory. The following applies: Ipomoea, pre-emergence, Mogl, 11.2 kg/ha, 10-14 days, read-out: herbicidal rating (% inhibition). The method in brief: as §6
In the next experiment the test system is Cocklebur. To be noted: Xanthium strumarium, pre-emergence, Cobu, 11.2 kg/ha, 10-14 days, read-out: herbicidal rating (% inhibition). The method in brief:
as §6

In another experiment the test system is Barnyardgrass. The following applies: Echinochloa crus-galli, pre-emergence, Bygr, 11.2 kg/ha, 10-14 days, read-out: herbicidal rating (% inhibition). The essentials:
as §6

The test system of the next experiment is Velvetleaf. To be noted: Abutilon theophrasti, pre-emergence, Vele, 11.2 kg/ha, 10-14 days, read-out: herbicidal rating (% inhibition). The essentials:
as §6

The subject of a further experiment is Downy Brome. To be noted: Bromus tectorum, pre-emergence, Dobr, 11.2 kg/ha, 10-14 days, read-out: herbicidal rating (% inhibition). The essentials:
as §6

By inhibition is commonly meant the share of the control response that was lost under treatment. Take `C=C1CC(c2c(C(F)(F)F)nc(OC)c(C(=O)OC)c2CC(C)C)OC1=O` (centres unmarked) [Compound 90, 3-pyridinecarboxylic acid, 5-(tetrahydro-4-methylene-5-oxo-2-furanyl)-2-methoxy-4-(2-methylpropyl)-6-(trifluoromethyl)-, methyl ester]: the inhibition at 11200 g/ha with Seedling Johnsongrass was in the range of 25 to 49%; in the experiment on Indian Mustard, 0 to 24%; in the experiment with Annual Bluegrass, 75 to 100%; with Wild Buckwheat, 0 to 24%; in the experiment on Yellow Nutsedge, 0 to 24%; with Morningglory, 0 to 24%. Besides, the inhibition at 11200 g/ha lay in the range of 0 to 24% with Cocklebur, 50 to 74% in the experiment on Barnyardgrass, 0 to 24% in the experiment with Velvetleaf and 50 to 74% in the experiment with Downy Brome.
Consider `COC(=O)c1c(OC)nc(C(F)(F)F)c(C2SCCCS2)c1CC(C)C` [Compound 94, 3-pyridinecarboxylic acid, 5-(1,3-dithian-2-yl)-2-methoxy-4-(2-methylpropyl)-6-(trifluoromethyl)-, methyl ester], for which the inhibition at 11200 g/ha lay in the range of 75 to 100% in the experiment with Seedling Johnsongrass; 75 to 100% with Indian Mustard; 75 to 100% in the experiment with Annual Bluegrass; 75 to 100% in the experiment with Wild Buckwheat; 0 to 24% in the experiment on Yellow Nutsedge; 75 to 100% with Morningglory. In addition, the inhibition at 11200 g/ha in the experiment on Cocklebur is 25 to 49%; in the experiment on Barnyardgrass it was 75 to 100%; in the experiment with Velvetleaf, 75 to 100%; in the experiment on Downy Brome, 50 to 74%.
On to `COC(=O)c1c(OC)nc(C(F)(F)F)c(C(Cl)=NCCCl)c1CC(C)C` [Compound 95, 3-pyridinecarboxylic acid, 5-[(chloro[2-chloroethyl)imino)methyl]-2-methoxy-4-(2-methylpropyl)-6-(trifluoromethyl)-, methyl ester], for which the inhibition at 11200 g/ha lay in the range of 75 to 100% in the experiment on Seedling Johnsongrass; 50 to 74% in the experiment with Indian Mustard; 75 to 100% in the experiment with Annual Bluegrass; 75 to 100% in the experiment on Wild Buckwheat; 0 to 24% in the experiment with Yellow Nutsedge; 0 to 24% in the experiment on Morningglory. The inhibition at 11200 g/ha fell in the range of 0 to 24% with Cocklebur, 75 to 100% in the experiment with Barnyardgrass, 50 to 74% in the experiment on Velvetleaf and 25 to 49% in the experiment on Downy Brome.
Regarding `COC(=O)c1c(OC(Cl)(Cl)Cl)nc(C(F)(F)F)c(C(=O)OC)c1CC(C)C` [Compound 96, 3,5-pyridinedicarboxylic acid, 4-(2-methylpropyl)-2-(trichloromethoxy)-6-(trifluoromethyl)-, dimethyl ester], the inhibition at 11200 g/ha lay within 75 to 100% in the experiment on Seedling Johnsongrass; 75 to 100% in the experiment with Indian Mustard; 75 to 100% in the experiment with Annual Bluegrass; 75 to 100% in the experiment on Wild Buckwheat; 0 to 24% in the experiment with Yellow Nutsedge; 75 to 100% in the experiment with Morningglory. The inhibition at 11200 g/ha lay in the range of 0 to 24% in the experiment on Cocklebur, 75 to 100% in the experiment with Barnyardgrass, 75 to 100% in the experiment with Velvetleaf and 50 to 74% with Downy Brome.
In the case of `COC(=O)c1c(OC)nc(C(F)(F)F)c(C2=NCCCO2)c1CC(C)C` [Compound 99], the inhibition at 11200 g/ha in the experiment on Seedling Johnsongrass fell in the range of 75 to 100%; in the experiment with Indian Mustard it was 75 to 100%; in the experiment with Annual Bluegrass it was 75 to 100%; in the experiment with Wild Buckwheat it was 25 to 49%; in the experiment with Yellow Nutsedge, 0 to 24%; in the experiment on Morningglory, 50 to 74%. Moreover, the inhibition at 11200 g/ha in the experiment with Cocklebur lay in the range of 0 to 24%; with Barnyardgrass, 75 to 100%; in the experiment on Velvetleaf it was 75 to 100%; with Downy Brome, 75 to 100%.
Turning to `COC(=O)c1c(OC)nc(C(F)(F)F)c(C(=O)NNC(C)=O)c1CC(C)C` [Compound 100, 3,5-pyridinedicarboxylic acid, 2-methoxy-4-(2-methylpropyl)-6-(trifluoromethyl)-, 3-methyl ester 5-(2-acetylhydrazide)], the inhibition at 11200 g/ha in the experiment on Seedling Johnsongrass fell in the range of 0 to 24%; with Indian Mustard, 0 to 24%; in the experiment with Annual Bluegrass it was 75 to 100%; in the experiment on Wild Buckwheat, 0 to 24%; in the experiment with Yellow Nutsedge, 0 to 24%; with Morningglory, 0 to 24%. In addition, the inhibition at 11200 g/ha with Cocklebur, in the experiment on Barnyardgrass, with Velvetleaf and with Downy Brome was 0 to 24% in each case.
As to `COC(=O)c1c(OC)nc(C(F)(F)F)c(C(=O)n2cc([N+](=O)[O-])cn2)c1CC(C)C` [Compound 101, 3-pyridinecarboxylic acid, 2-methoxy-4-(2-methylpropyl)-5-[(4-nitro-1H-pyrazo1-1-yl)carbonyl]-6-(trifluoromethyl)-, methyl ester], the inhibition at 11200 g/ha with Seedling Johnsongrass was 75 to 100%; with Indian Mustard, 75 to 100%; in the experiment with Annual Bluegrass it was 75 to 100%; in the experiment with Wild Buckwheat it was 75 to 100%; in the experiment with Yellow Nutsedge, 0 to 24%; with Morningglory, 50 to 74%. Also, the inhibition at 11200 g/ha is 25 to 49% in the experiment with Cocklebur, 75 to 100% in the experiment on Barnyardgrass, 50 to 74% in the experiment with Velvetleaf and 50 to 74% in the experiment on Downy Brome.
For the compound `COC(=O)c1c(OC)nc(C(F)(F)F)c(C(=O)n2ccc(F)n2)c1CC(C)C` [Compound 102, 3-pyridinecarboxylic acid, 5-[(3-fluoro-1H-pyrazo1-1-yl)carbonyl]-2-methoxy-4-(2-methylpropyl)-6-(trifluoromethyl)-, methyl ester], the inhibition at 11200 g/ha with Seedling Johnsongrass, in the experiment with Indian Mustard, with Annual Bluegrass, in the experiment with Wild Buckwheat, in the experiment with Yellow Nutsedge and in the experiment on Morningglory was 75 to 100% each time. Also, the inhibition at 11200 g/ha in the experiment on Cocklebur, with Barnyardgrass, in the experiment with Velvetleaf and in the experiment on Downy Brome was 75 to 100% each time.
Regarding `COC(=O)c1c(OC)nc(C(F)(F)F)c(C(=O)n2cc(Cl)cn2)c1CC(C)C` [Compound 104], the inhibition at 11200 g/ha in the experiment with Seedling Johnsongrass lay within 75 to 100%; in the experiment with Indian Mustard, 75 to 100%; with Annual Bluegrass, 75 to 100%; in the experiment on Wild Buckwheat it was 50 to 74%; in the experiment with Yellow Nutsedge, 0 to 24%; in the experiment on Morningglory, 50 to 74%. In addition, the inhibition at 11200 g/ha in the experiment with Cocklebur lay within 0 to 24%; with Barnyardgrass it was 75 to 100%; in the experiment with Velvetleaf, 50 to 74%; with Downy Brome, 50 to 74%.
Consider `COC(=O)c1c(OC)nc(C(F)(F)F)c(C(N)=O)c1CC(C)C` [Compound 105, 3-pyridinecarboxylic acid, 5-(aminocarbonyl)-2-methoxy-4-(2-methylpropyl)-6-(trifluoromethyl)-, methyl ester], for which the inhibition at 11200 g/ha in the experiment on Seedling Johnsongrass is 75 to 100%; with Indian Mustard it was 0 to 24%; in the experiment on Annual Bluegrass it was 75 to 100%; in the experiment on Wild Buckwheat, 25 to 49%; in the experiment with Yellow Nutsedge, 0 to 24%; with Morningglory, 0 to 24%. For the same compound, the inhibition at 11200 g/ha in the experiment on Cocklebur was 0 to 24%; in the experiment on Barnyardgrass it was 75 to 100%; in the experiment on Velvetleaf, 0 to 24%; in the experiment with Downy Brome, 0 to 24%.
As to `COC(=O)c1c(OC)nc(C(F)(F)F)c(C#N)c1CC(C)C` [Compound 106, 3-pyridinecarboxylic acid, 5-cyano-2-methoxy-4-(2-methylpropyl)-6-(trifluoromethyl)-, methyl ester], the inhibition at 11200 g/ha with Seedling Johnsongrass fell in the range of 0 to 24%; in the experiment with Indian Mustard, 75 to 100%; in the experiment on Annual Bluegrass it was 75 to 100%; in the experiment on Wild Buckwheat it was 75 to 100%; with Yellow Nutsedge, 0 to 24%; in the experiment on Morningglory, 50 to 74%. Besides, the inhibition at 11200 g/ha with Cocklebur was in the range of 0 to 24%; in the experiment with Barnyardgrass it was 75 to 100%; in the experiment on Velvetleaf it was 0 to 24%; in the experiment with Downy Brome, 75 to 100%.
